Legend:
[1] = ABTS radical scavenging assay; type: biochemical; settings: supplement tables; for ABTS, mean±SD: n = 3
Summary of the method: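 ABTS radical, generated with 2.45 mM potassium persulfate (12-16 h, dark, room temperature) and diluted to A734 0.74 ± 0.03, was mixed with sample 10:190 μL sample:ABTS and kept 7 min in the dark. Scavenging % from absorbance drop at 734 nm versus reagent-only control; TEAC from Trolox standard curve, as mM TE/mg protein.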

RAW 264.7 [2] = experiment: Cytotoxicity assessment (MTT); type: cell-based, Murine; settings: peptide 10 µg/mL, 72 h; for Cell viability, mean±SD: relative to untreated cells, n = 3, SD
Summary of the method: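 RAW 264.7 murine macrophages seeded at 1 x 10^5 cells/well and exposed to peptides at 10 µg/mL for 72 h. MTT (0.5 mg/mL) added for 3 h, formazan dissolved in DMSO and read at 570/630 nm; viability as % of untreated after blank subtraction.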

RAW 264.7 [3] = experiment: Anti-inflammation assay: released NO in LPS-stimulated RAW 264.7 (Griess); type: cell-based, Murine; settings: then 1 µg/mL LPS 24 h; for Released NO: peptide 10 µg/mL 1 h; for Released NO, mean±SD: peptide 10 µg/mL pre-treatment 1 h, Griess reagent, n = 3
Summary of the method: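 RAW 264.7 cells pre-treated 1 h with peptide samples at 10 µg/mL, then stimulated with 1 µg/mL LPS for 24 h. NO released into conditioned medium quantified by Griess reagent against an NO calibration curve; unstimulated cells served as negative control.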

[4] = Ferric reducing antioxidant power (FRAP) assay; type: biochemical
Summary of the method: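 Sample mixed with FRAP reagent (300 mM acetate buffer pH 3.6, 10 mM TPTZ in 40 mM HCl, 20 mM FeCl3; 10:1:1) and kept 15 min in the dark; absorbance at 593 nm. Values from an FeSO4 standard curve, as mM FeSO4 equivalent per mg protein.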

[5] = DPPH radical scavenging assay; type: biochemical; settings: supplement tables; for DPPH, mean±SD: n = 3
Summary of the method: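 Sample mixed with 0.1 mM DPPH in 70% ethanol and kept 30 min in the dark at room temperature; absorbance read at 517 nm. Scavenging % taken from absorbance relative to a reagent-only control; Trolox standard curve gives TEAC as mM TE/mg protein.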

[6] = 10 µL sample + 190 µL FRAP solution, 15 min dark, 593 nm, FeSO4 standard curve, mean ± SD, n = 3, SD

| Sequence | ABTS, mean±SD [1] | ABTS ([1]; replicate 1) [TE/mg protein] | ABTS ([1]; replicate 2) [TE/mg protein] | ABTS ([1]; replicate 3) [TE/mg protein] | Cell viability, mean±SD (RAW 264.7 [2]) [%] | Cell viability (RAW 264.7 [2]; replicate 1) [%] | Cell viability (RAW 264.7 [2]; replicate 2) [%] | Cell viability (RAW 264.7 [2]; replicate 3) [%] | Released NO (RAW 264.7 [3]; replicate 1) [µM] | Released NO (RAW 264.7 [3]; replicate 2) [µM] | Released NO (RAW 264.7 [3]; replicate 3) [µM] | Released NO, mean±SD (RAW 264.7 [3]) [µM] | FRAP [4, 6] | FRAP ([4]; supplement tables, replicate 1) [mM FeSO4/mg protein] | FRAP ([4]; supplement tables, replicate 2) [mM FeSO4/mg protein] | FRAP ([4]; supplement tables, replicate 3) [mM FeSO4/mg protein] | DPPH, mean±SD [5] | DPPH ([5]; replicate 1) [TE/mg protein] | DPPH ([5]; replicate 2) [TE/mg protein] | DPPH ([5]; replicate 3) [TE/mg protein] |
| --- | --- | --- | --- | --- | --- | --- | --- | --- | --- | --- | --- | --- | --- | --- | --- | --- | --- | --- | --- | --- |
| RPLAKIIP [P8, synthesized peptide identified from jellyfish fraction PUR20C] | 3.11 TE/mg protein | 2.51 | 3.31 | 3.51 | 83.71 | 84.35 | 85.23 | 81.54 | 37.58 | 37.93 | 34.82 | 36.78 | 9.31 mM FeSO4/mg protein | 9.31 | 9.52 | 9.10 | 2.22 TE/mg protein | 1.78 | 1.78 | 3.11 |
| EIDKLPPESRP [P7, synthesized peptide identified from jellyfish fraction PUR20C] | 1.64 TE/mg protein | 1.71 | 1.71 | 1.50 | 81.60 | 81.72 | 81.89 | 81.19 | 35.51 | 37.58 | 33.79 | 35.63 ± 1.89 | 12.40±1.36^C mM FeSO4/mg protein | 11.00 | 13.73 | 12.47 | 1.96 TE/mg protein | 1.52 | 1.78 | 2.58 |
| GKNCGETVWE [P9, synthesized peptide identified from jellyfish fraction PUR20C] | 103.21±2.27^F TE/mg protein | 105.08 | 100.67 | 103.88 | 87.34 | 87.34 | 86.26 | 88.40 | 35.86 | 36.20 | 34.82 | 35.63 ± 0.71 | 13.03±0.8^C mM FeSO4/mg protein | 13.31 | 13.73 | 12.05 | 40.86±0.85^C TE/mg protein | 40.24 | 41.83 | 40.51 |
| TDSPAPSETTD [P2, synthesized peptide identified from jellyfish fraction PUR20C] | 2.91 TE/mg protein | 3.11 | 2.71 | 2.91 | 85.70 | 83.12 | 86.46 | 87.52 | 38.27 | 37.24 | 37.58 | 37.70 | 7.63 mM FeSO4/mg protein | 7.21 | 7.63 | 8.05 | 2.84 TE/mg protein | 2.31 | 3.11 | 3.11 |

Reference: article PMC11813147, “Bioactivity assessment of peptides derived from salted jellyfish (Rhopilema hispidum) byproducts” (PLOS ONE, 2025)
